Results: patent US20240197760A1, “ACTIVATORS OF INTEGRATED STRESS RESPONSE PATHWAY FOR PROTECTION AGAINST FERROPTOSIS” (Burke Neurological Institute, priority 2021, published 2024)

Key:
[1] = tested on: AMPK; experiment: AMPK phosphorylation (threonine 172) immunoblot in primary cortical neurons; type: cell-based, mouse; conditions: increasing concentrations 1-15 mM, 4 h
Procedure: Whole cell proteins were extracted in Triton X-100 lysis buffer (1% Triton X-100, 1% SDS, 50 mM Tris-Cl, pH 7.4, 500 mM NaCl and 1 mM EDTA). Samples were boiled in Laemmli buffer and electrophoresed under reducing conditions on NuPAGER Novex 4-12% Bis-Tris Gel polyacrylamide gels (Invitrogen). Proteins were transferred to a nitrocellulose membrane (Bio-Rad) by electroblotting. Nonspecific binding was inhibited by incubation in Odyssey blocking buffer (LI-COR Biosciences). Antibodies against Glut3 (Abcam, Catalog no. AB41525, dilution 1:1000), actin (Sigma Aldrich, Catalog no. A5316, dilution 1:10000), BDNF (Santacruz Biotechnology, Catalog no. sc-546, dilution 1:10,000), tubulin (Sigma Aldrich, Catalog no. T8203, dilution 1:10000), p-AMPK (Cell Signaling Technology, Cat no. 2535L, dilution 1:1000), AMPK (Cell Signaling Technology, Cat no. 2532L, dilution 1:1000), GFP (Cell Signaling Technology, Cat no. 2555S, dilution 1:2000), elF2S1 (phospho S51) (Abcam, Catalog no. AB32157, dilution 1:500), and eIF2α (Cell Signaling Technology, Cat no. 9722, dilution 1:500) were diluted in odyssey blocking buffer and the membranes were incubated overnight at 4° C. […] Finally, proteins were detected using an Odyssey infrared imaging system (LI-COR Biosciences).

[2] = tested on: Trib3 promoter, Bdnf promoter; experiment: Promoter reporter luciferase assay in primary neurons; type: cell-based, mouse; conditions: 2-DG 9 h treatment, reporter in mouse primary neurons
Procedure: Primary neurons were co-transfected with various plasmids such as different Bdnf exon promoters each tagged with firefly luciferase or Trib3 promoter tagged with firefly luciferase and pTK-renilla luciferase plasmid at 1:10 ratio using Lipofectamine 2000 (Thermo Fisher Scientific, catalog number—11668019) according to the manufacturer's instructions to control for transfection efficiency. […] Thereafter, luciferase activity was measured using dual luciferase assay kit (Promega) and bioluminometer (MDS Analytical Technologies). Final luciferase activity was calculated by normalizing firefly luciferase activity with Renilla luciferase activity and then the valued were converted to fold change with respect to control.

[3] = tested on: human Bdnf promoters; experiment: Human Bdnf promoter luciferase reporters in HT22 cells; type: cell-based, mouse; conditions: 10 mM, 6 h
[4] = tested on: JTC-19 line; conditions: JTC-19 lung cancer line; cited from earlier work
[5] = tested on: HEK293 cell line; conditions: cited from earlier work
[6] = tested on: triple transgenic model of AD; conditions: cited from earlier work

OC[C@H]1OC(O)C[C@@H](O)[C@@H]1O (stereo partly drawn) [2-DG, (4R,5S,6R)-6-(hydroxymethyl)oxane-2,4,5-triol]
level of AMPK phosphorylation at threonine 172 [1]: biphasic
Trib3 promoter activity with or without mutation in ATF4 binding site [2]: ATF4 binding site mutation completely blocked the 2-DG led induction of Trib3 promoter activity
promoter activity of nine human Bdnf promoters [3]: all Bdnf promoters except Bdnf promoter VI were significantly upregulated
Bdnf gene expression [4]: inhibit the Bdnf gene expression
Bdnf gene expression [5]: inhibit the Bdnf gene expression
brain energy metabolism and amyloid pathology [6]: improve brain energy metabolism and amyloid pathology
